The text below walks through data of BindingDB's records for patent US20230331683 (University of Virginia Patent Foundation, 2023).

The experiment deals with T1, Sphingosine-1-phosphate transporter SPNS2 (Mus musculus, UniProt Q91VM4).
T1 sequence (Q91VM4 whole entry): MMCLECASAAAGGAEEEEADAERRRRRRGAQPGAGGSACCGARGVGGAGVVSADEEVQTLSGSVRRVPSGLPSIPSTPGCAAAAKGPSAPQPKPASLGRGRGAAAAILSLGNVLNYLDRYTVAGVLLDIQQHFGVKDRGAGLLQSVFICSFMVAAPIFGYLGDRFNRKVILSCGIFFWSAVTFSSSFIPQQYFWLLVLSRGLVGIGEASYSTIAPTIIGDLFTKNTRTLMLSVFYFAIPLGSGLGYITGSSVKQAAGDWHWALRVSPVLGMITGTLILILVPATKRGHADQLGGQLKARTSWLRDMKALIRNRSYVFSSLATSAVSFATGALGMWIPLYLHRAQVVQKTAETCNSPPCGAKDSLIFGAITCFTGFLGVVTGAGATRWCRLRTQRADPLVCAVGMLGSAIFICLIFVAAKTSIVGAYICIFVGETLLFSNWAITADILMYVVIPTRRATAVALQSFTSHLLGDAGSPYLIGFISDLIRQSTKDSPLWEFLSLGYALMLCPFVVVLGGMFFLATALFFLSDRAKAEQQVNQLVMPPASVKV
Briefly: S1P Transporter Assay. How it is done:
Transporter assays are vectorial and therefore require measurement of the transported analyte in different compartments. The S1P transporter SPNS2 only exports S1P, which obviates measuring uptake of S1P into transporter-expressing cells. Thus, transporter activity was determined by quantifying S1P release from whole cells expressing SPNS2. SPNS2 inhibitor potency was assessed using whole cell assays. HeLa cells expressing mouse SPNS2 were used to determine inhibitor potency (IC50). Cells were plated onto 12 well plates and assayed when the cell monolayers became confluent. Cell growth media (RPMI-1640 containing 10% fetal bovine serum) was replaced with 2 mL of serum-free media (RPMI-1640) containing fatty acid free bovine serum albumin (BSA) (0.2 % w/v) and supplemented with 4-deoxypyridoxine (DOP) (1 mM), NaF (2 mM), Na3VO4 (0.2 mM) to inhibit S1P degradation. Test articles (1 × 10-9 - 1 × 10^-4 M) were assayed in duplicate or triplicate. After 18 hours, media was collected, an internal recovery standard (0.005 mL of 5 × 10^-7 M deuterated (d7) S 1P in methanol) was added, the BSA was precipitated with trichloroacetic acid and the bound S1P extracted with methanol. S1P and S1P-d7 were measured by liquid chromatography mass spectrometry.
Consider `CCCCCCCCCCc1ccc(C(=O)N(C)[C@@H]2CCNC2)cc1` [US20230331683, Compound 32], for which the IC50 was more than 2 µM.

As for `CCCCCCCCCCc1ccc(C(=O)N[C@H]2CCNC2)cc1` [US20230331683, Compound 26a], the half-maximal inhibitory concentration (IC50) was less than 2 µM.

On to `CCCCCCCCCCc1ccc2nc(N[C@H]3CCNC3)oc2c1` [US20230331683, Compound 13s], for which the half-maximal inhibitory concentration (IC50) was less than 2 µM.

Take `CCCCCCCCCCc1ccc2oc(N[C@@H]3CCNC3)nc2c1` [US20230331683, Compound 13k]: the IC50 is less than 2 µM.

With `CCCCCCCCCCc1ccc2nc(CCCN)oc2c1` [US20230331683, Compound 8e], the half-maximal inhibitory concentration (IC50) was more than 2 µM.

In turn, `CCCCCCCCCCc1ccc(NC(=O)[C@@H]2CCN(C(=N)N)C2)cc1` [US20230331683, Compound 4b] came in with a concentration for half-maximal inhibition (IC50) of less than 2 µM.

Turning to `CCCCCCCCCCc1ccc(C(=S)N[C@@H]2CCNC2)cc1` [US20230331683, Compound 33], the 50% inhibitory concentration (IC50) is less than 2 µM.

Regarding `CCCCCCCCCCc1ccc2oc(NC[C@H]3CCNC3)nc2c1` [US20230331683, Compound 38], the IC50 is less than 2 µM.

In turn, `CCCCCCCCCCc1ccc(C(=O)N[C@@H]2CCNC2)cc1` [US20230331683, Compound 26b] displayed a concentration for half-maximal inhibition (IC50) of less than 2 µM.

Compound `CCCCCCCCc1ccc2cc(NC(=O)CCCN)ccc2c1` [US20230331683, Compound 2k] registered an IC50 of more than 2 µM.

Consider `CCCCCCCCCCc1ccc2oc(NC[C@@H]3CCNC3)nc2c1` [US20230331683, Compound 37], for which the IC50 is less than 2 µM.

For the compound `CCCCCCCCCCc1ccc2nc(N[C@@H]3CCNC3)oc2c1` [US20230331683, Compound 13t], the IC50 was less than 2 µM.

As to `CCCCCCCCCCc1ccc2oc(N[C@H]3CCNC3)nc2c1` [US20230331683, Compound 13j], the IC50 was less than 2 µM.
